{
  "source": "patent US20220228120A1",
  "about": "“Cardiomyocyte Compositions and Use Thereof” (UNIVERSITY HEALTH NETWORK, priority 2019, published 2022)",
  "type_in_all_cases": "cell-based, human",
  "key": {"mature compact CMs [1]": {"tested_on": "mature compact CMs", "test": "In vitro pathological stimuli model (hypoxia+ISO): RT-qPCR", "procedure": "Total RNA from samples was isolated using RNAqueous™-micro Kit including RNase-free DNase treatment (invitrogen). RNA from dissected ventricular and atrial tissue of human fetal hearts was isolated using the TRIzol® method (ThermoFisher) and treated with DNase (Ambion®). Isolated RNA was reverse transcribed into cDNA using oligo (dT) primers and random hexamers and iScript™ Reverse Transcriptase (ThermoFisher). QRT-PCR was performed on an EP Real-Plex MasterCycler® (Eppendorf®) using QuantiFast® SYBR Green PCR kit (QIAGEN). The copy number of each gene relative to the house keeping gene TBP.\n(§1) To induce a pathological response in the mature CMs, we cultured them in the presence of isoproterenol (100 μM), a small molecule adrenergic agonist in a hypoxic (5% O2) environment, in low glucose containing medium with Palmitate (200 μM) for 6 days (FIG. 8B). Immature control cells were treated under the same conditions. […] (FIG. 8C). To assess the glycolytic flux in these cells, we measured the extracellular acidification rate (ECAR) as an index of glycolytic activity using the Seahorse™ XF assay (Mookerjee and Brand. J Vis Exp. (2015) e53464)."}, "mature compact CMs [2]": {"tested_on": "mature compact CMs", "test": "In vitro pathological stimuli model: ECAR by Seahorse XF glycolysis assay", "procedure": "For the Seahorse™ XF FAO assay, a few EBs were plated onto an XFe24 cell culture microplate coated by Matrigel™ 48 hours prior to the assay. 24 hours prior to the assay, replace the culture medium with substrate-limited medium containing 0.5 mM glucose (Sigma), 1.0 mM Glutamine (Life technology), 0.5 mM Carnitine (Sigma), and 1% Fetal Bovine Serum (Wisent) in DMEM no glucose medium (ThermoFisher). 45 mins prior to the assay, wash the cells two times with FAO assay medium, add 375 μl/well FAO assay medium to the cells and incubate for 45 mins at 37 C. Load the assay cartridge with Seahorse™ XF Cell Mito Stress Test compounds (2 μM oligomycin, 5 μM FCCP, 0.5 μM rotenone/0.5 μM antimycin A). […] After the measurement of OCR, EBs are dissociated and counted the cell number in each well. […] After the measurement of ECAR, EBs are dissociated and counted the cell number in each well. […]\nTo induce a pathological response in the mature CMs, we cultured them in the presence of isoproterenol (100 μM), a small molecule adrenergic agonist in a hypoxic (5% O2) environment, in low glucose containing medium with Palmitate (200 μM) for 6 days (FIG. 8B). […] To assess the glycolytic flux in these cells, we measured the extracellular acidification rate (ECAR) as an index of glycolytic activity using the Seahorse™ XF assay (Mookerjee and Brand. J Vis Exp. (2015) e53464)."}, "mature and immature CMs [3]": {"tested_on": "mature and immature CMs", "test": "In vitro pathological stimuli model: Nile Red lipid accumulation", "details": "treated populations", "procedure": "To quantify the lipid droplets, Cayman's Lipid Droplets Fluorescence Assay Kit (Cayman) was used. After the EBs were dissociated as described above, cells were fixed by Fixative Solution for 10 mins at room temperature. Cells were washed with Assay Buffer and stained with the Nile Red Staining Solution at room temperature for 15 mins. Cells were washed with Assay Buffer and analyzed with filter sets to detect FITC using the LSR II Flow cytometer (BD PharMingen™). Data were analyzed using FlowJo™ software (Tree Star).\nas §1"}, "mature and immature CMs [4]": {"tested_on": "mature and immature CMs", "test": "In vitro pathological stimuli model: CASP9 expression and Annexin V apoptosis assay", "procedure": "After the culture in the pathological condition for 6 days, the EBs were dissociated as described above. To detect the apoptosis following the pathological stimuli, TACS® Annexin V assay (TREVIGEN) was performed by flowcytometry. Cells were washed with PBS and stained with Annexin V-FITC for 15 mins at room temperature. Add Binding Buffer to samples and process by flowcytometry. Stained cells were analyzed using the LSR II Flow cytometer (BD). Data were analyzed using FlowJo™ software (Tree Star).\nas §1"}, "[5]": {"tested_on": "hPSC-derived compact cardiomyocytes", "test": "Seahorse XF FAO Cell Mito stress test (OCR), compact cardiomyocytes", "details": "ETO 40 μM, mature cells"}, "hPSC-derived atrial CMs": {"tested_on": "hPSC-derived atrial CMs", "test": "Seahorse FAO Cell Mito stress test (OCR), atrial CMs", "details": "ETO 40 μM"}},
  "data": [
    {"smiles": "CC(C)NCC(O)c1ccc(O)c(O)c1", "note": "(stereo not shown) [isoproterenol]", "values": [
      {"measurement": "expression of glycolysis-related genes GLUT1, GAPDH and LDHA", "setting": "mature compact CMs [1]; isoproterenol 100 μM, 5% O2, low glucose with Palmitate 200 μM, 6 days, mature CMs", "result": "upregulation"},
      {"measurement": "expression of CD36, GPD1 and PLIN2", "setting": "mature compact CMs [1]; mature CMs under the pathological stimuli", "result": "upregulated"},
      {"measurement": "expression of hormone sensitive lipase HSL", "setting": "mature compact CMs [1]; treated mature CMs", "result": "downregulated"},
      {"measurement": "glycolytic activity (ECAR)", "setting": "mature compact CMs [2]; isoproterenol 100 μM, 5% O2, 6 days, mature CMs", "result": "significantly upregulated"},
      {"measurement": "lipid accumulation (Nile red)", "setting": "mature and immature CMs [3]", "result": "increases"},
      {"measurement": "apoptosis (CASP9, Annexin V^+ cells)", "setting": "mature and immature CMs [4]; immature population", "result": "not in the immature population"},
      {"measurement": "apoptosis (CASP9, Annexin V^+ cells)", "setting": "mature and immature CMs [4]; mature population", "result": "induced apoptosis"}
    ]},
    {"smiles": "O=CC[C@@H](O)[C@H](O)[C@H](O)CO", "note": "[2-DG, 2-deoxy-glucose]", "values": [
      {"measurement": "ECAR following injection", "setting": "mature compact CMs [2]; mature CMs exposed to the pathological stimuli, 2-DG 100 mM", "result": "rapid decrease"}
    ]},
    {"smiles": "CCOC(=O)[C@@]1(CCCCCCOc2ccc(Cl)cc2)CO1", "note": "[ETO, etomoxir]", "values": [
      {"measurement": "mitochondrial oxidation", "setting": "[5]", "result": "blocked"},
      {"measurement": "mitochondrial oxidation, atrial CMs", "setting": "hPSC-derived atrial CMs", "result": "blocked"}
    ]}
  ]
}
